Active and inactive are the calls of the source. No cut-off for these calls is given here.

Test [1] deals with T1, OTU domain-containing protein 3 (Homo sapiens) (UniProt Q5T2D3).
T1 sequence (whole entry): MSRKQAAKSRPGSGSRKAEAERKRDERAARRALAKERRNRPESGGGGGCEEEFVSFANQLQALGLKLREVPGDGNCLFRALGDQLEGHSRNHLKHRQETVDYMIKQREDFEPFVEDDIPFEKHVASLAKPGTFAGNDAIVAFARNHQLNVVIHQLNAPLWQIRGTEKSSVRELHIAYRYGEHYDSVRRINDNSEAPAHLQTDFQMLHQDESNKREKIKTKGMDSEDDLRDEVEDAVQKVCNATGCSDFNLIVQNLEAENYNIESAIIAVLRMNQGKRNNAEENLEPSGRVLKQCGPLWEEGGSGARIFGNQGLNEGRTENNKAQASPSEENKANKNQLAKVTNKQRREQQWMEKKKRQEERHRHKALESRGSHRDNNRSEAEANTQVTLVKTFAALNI
As to the kind of experiment: Inhibition of GST-tagged human OTUD3 using Ub-Rh110Gly as fluorogenic substrate at 40 uM preincubated for 1 hr followed by substrate addition by plate reader analysis.

Test [2] addresses T2, Ubiquitin carboxyl-terminal hydrolase isozyme L3 (Homo sapiens) (UniProt P15374).
T2 sequence (whole entry): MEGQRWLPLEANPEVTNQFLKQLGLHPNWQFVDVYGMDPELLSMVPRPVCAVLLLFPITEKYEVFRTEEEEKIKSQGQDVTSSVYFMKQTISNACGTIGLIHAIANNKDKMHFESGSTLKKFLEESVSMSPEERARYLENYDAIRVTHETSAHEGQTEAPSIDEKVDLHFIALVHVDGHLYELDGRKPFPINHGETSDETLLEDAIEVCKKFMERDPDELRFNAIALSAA
As to the kind of experiment: Inhibition of GST-tagged human UCHL3 using Ub-Rh110Gly as fluorogenic substrate at 40 uM preincubated for 1 hr followed by substrate addition by plate reader analysis.

Test [3] relates to Chlamydia trachomatis. As to the kind of experiment: Antimicrobial activity against Chlamydia trachomatis serovar L2 infected in human HeLa cells assessed as inclusion forming unit at 12.5 ug/ml measured at 24 to 48 hrs of post-infection by immunofluorescence based microscopic analysis. The following applies: dose 12.5 µg/ml; time 24-48 hrs. The test is classed as functional.

Test [4] has as its system Chlamydia trachomatis. Kind of test: Antimicrobial activity against Chlamydia trachomatis serovar L2 infected in human HeLa cells assessed as reduction in inclusion circumference at 6.25 ug/ml measured after 24 hrs of post-infection by microscopic analysis (reference value: 31.72 micrometer). Type of test: functional. The conditions noted are these: dose 6.25 µg/ml.
Test [5] relates to Chlamydia trachomatis. Kind of test: Antimicrobial activity against Chlamydia trachomatis serovar L2 infected in human HeLa cells assessed as change in inclusion morphology at 1.56 to 12.5 ug/ml measured after 24 hrs of post-infection by immunofluorescence based microscopic analysis. The test is classed as functional, organism-based. The conditions noted are these: dose 1.56-12.5 µg/ml.

For test [6], the system named is Chlamydia trachomatis. As to the kind of experiment: Antimicrobial activity against Chlamydia trachomatis serovar L2 infected in human HeLa cells assessed as reduction in microbial progeny at 6.25 ug/ml measured after 24 hrs of post-infection by immunofluorescence analysis. The test is classed as functional. The arrangement: scale not given: the % may be the effect or the level left. The conditions noted are these: dose 6.25 µg/ml.

A short description of test [7]: Covalent inhibition of C-terminal 6His-tagged Chlamydia trachomatis DUB1 (130 to 401 residues) expressed in Escherichia coli Rosetta 2 (DE3) cells using Ub-Rh110Gly as fluorogenic substrate preincubated for 1 hr followed by substrate addition by plate reader analysis.
Another test has as its system HeLa. As to the kind of experiment: Cytotoxicity against human HeLa cells at 128 ug/ml incubated for 20 hrs by […] assay. Type of test: functional, cell-based. The conditions noted are these: dose 128.0 µg/ml.
Test [8] has as its system Chlamydia trachomatis. As to the kind of experiment: Antimicrobial activity against Chlamydia trachomatis serovar L2 infected in human HeLa cells assessed as reduction in inclusion area at 12.5 ug/ml measured after 24 hrs of post-infection by microscopic analysis. The test is classed as functional. The conditions noted are these: dose 12.5 µg/ml.
Test [9] concerns Chlamydia trachomatis. As to the kind of experiment: Antimicrobial activity against Chlamydia trachomatis serovar L2 infected in human HeLa cells assessed as reduction in microbial progeny at 3.13 ug/ml measured after 24 hrs of post-infection by immunofluorescence analysis. Type of test: functional. The arrangement: scale not given: the % may be the effect or the level left. The conditions noted are these: dose 3.13 µg/ml.

Test [10] deals with Chlamydia trachomatis. Kind of test: Antimicrobial activity against Chlamydia trachomatis serovar L2 infected in human HeLa cells assessed as reduction in microbial progeny at 12.5 ug/ml measured after 24 hrs of post-infection by immunofluorescence analysis. The test is classed as functional. Set-up: scale not given: the % may be the effect or the level left. The following applies: dose 12.5 µg/ml.

For test [11], the system named is Chlamydia trachomatis. As to the kind of experiment: Antimicrobial activity against Chlamydia trachomatis serovar L2 infected in human HEp-2 cells assessed as fold change in inclusion forming unit at 1.56 to 12.5 ug/ml measured at 8 to 48 hrs of post-infection by immunofluorescence based microscopic analysis. The following applies: dose 1.56-12.5 µg/ml; time 8-48 hrs. The test is classed as functional.

Test [12] has as its target Ubiquitin carboxyl-terminal hydrolase 7 (Homo sapiens) (UniProt Q93009). As to the kind of experiment: Inhibition of 6His-tagged human USP7 using Ub-Rh110Gly as fluorogenic substrate at 40 uM preincubated for 1 hr followed by substrate addition by plate reader analysis.

Sequence of Ubiquitin carboxyl-terminal hydrolase 7 (Homo sapiens) (Q93009 whole entry, looked up): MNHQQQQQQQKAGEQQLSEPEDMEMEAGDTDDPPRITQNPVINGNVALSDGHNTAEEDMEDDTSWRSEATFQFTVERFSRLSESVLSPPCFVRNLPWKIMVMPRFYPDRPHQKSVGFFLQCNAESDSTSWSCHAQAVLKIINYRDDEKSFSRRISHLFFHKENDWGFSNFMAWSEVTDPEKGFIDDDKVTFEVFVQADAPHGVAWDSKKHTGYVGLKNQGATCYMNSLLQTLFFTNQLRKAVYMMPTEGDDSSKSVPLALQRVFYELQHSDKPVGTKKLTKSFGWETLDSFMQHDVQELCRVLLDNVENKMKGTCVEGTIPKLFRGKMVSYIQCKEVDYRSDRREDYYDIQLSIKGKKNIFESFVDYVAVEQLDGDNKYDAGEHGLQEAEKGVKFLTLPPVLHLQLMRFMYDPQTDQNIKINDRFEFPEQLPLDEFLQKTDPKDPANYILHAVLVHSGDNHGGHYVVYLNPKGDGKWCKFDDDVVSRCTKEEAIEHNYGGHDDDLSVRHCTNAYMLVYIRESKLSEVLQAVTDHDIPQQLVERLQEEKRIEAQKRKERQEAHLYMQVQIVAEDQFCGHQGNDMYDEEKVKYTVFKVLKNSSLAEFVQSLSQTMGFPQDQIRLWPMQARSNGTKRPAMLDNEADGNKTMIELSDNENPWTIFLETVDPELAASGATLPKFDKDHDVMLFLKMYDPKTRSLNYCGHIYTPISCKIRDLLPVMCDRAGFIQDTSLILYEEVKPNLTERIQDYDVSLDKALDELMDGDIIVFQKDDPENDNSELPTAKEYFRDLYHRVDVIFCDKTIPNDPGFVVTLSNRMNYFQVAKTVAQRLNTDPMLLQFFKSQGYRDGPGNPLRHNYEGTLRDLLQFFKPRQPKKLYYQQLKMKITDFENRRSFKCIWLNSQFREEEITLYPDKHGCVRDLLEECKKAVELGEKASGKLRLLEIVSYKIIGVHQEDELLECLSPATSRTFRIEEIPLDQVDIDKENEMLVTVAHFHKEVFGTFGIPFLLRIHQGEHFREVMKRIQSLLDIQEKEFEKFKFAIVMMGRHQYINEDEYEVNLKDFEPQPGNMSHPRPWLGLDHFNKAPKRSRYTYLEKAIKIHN

Take `N#Cc1ncc(C(=O)NCc2ccc(C(=O)NC34CC5CC(CC(C5)C3)C4)cc2)cn1`: the inhibition result in test [1], in test [2] and in [12] was “inactive” throughout. The Activity with Chlamydia trachomatis [3] is listed as 3.7 10^6IFU/ml; in the test with Chlamydia trachomatis [4], 25.98 um; in the test on Chlamydia trachomatis [6], 66.5%; in the test with Chlamydia trachomatis [8], 15.38 um2; with Chlamydia trachomatis [9], 45.5%; with Chlamydia trachomatis [10], 80%. Further, the outcome in the test with Chlamydia trachomatis [5] and in the test on HeLa was inactive. The IC50 in test [7] was 7.7 µM. Moreover, the pIC50 in test [7] is given as 5.11. For the same compound, the “fold change (FC)” value in the test with Chlamydia trachomatis [11] was found to be 2.

For the origin of these results see ChEMBL document CHEMBL5576083, “Structure-Based Design and Synthesis of Covalent Inhibitors for Deubiquitinase and Acetyltransferase ChlaDUB1 of Chlamydia trachomatis” (J Med Chem, 2024).
